Measurements reported in article PMC11742723, “The clinical-stage drug BTZ-043 accumulates in murine tuberculosis lesions and efficiently acts against Mycobacterium tuberculosis” (Nature Communications, 2025).
Where “and” joins values, the source holds several entries; their conditions need not be identical. Equal entries are not always repeated. Where two headings read alike, the source gives them in different places.

Legend:
[1] = system: Mtb; experiment: Lesional efficacy: LCM of necrotic core and Mtb 16S rRNA molecular bacterial load assay (MBLA); format: in vivo, Mycobacterium tuberculosis; settings: for CFU / mm3 (MBLA): BTZ-043 [250 mg/kg], individual mice, 250 mg/kg
[2] = LCM coupled LC-MS/MS of necrotic granulomas and non-necrotic regions; format: in vivo, IL-13tg mice; settings: for concentration at 4 h: IL-13tg, mouse, oral
Description: Necrotic granulomas and non-necrotic regions were dissected from 2 to 3 γ−irradiated serial lung cryosections (thickness: 12 µm) using a PALM Microbeam (Zeiss, Oberkochen, Germany). Laser-dissected tissues were captured in an ascorbic acid solution (2.5 mg/mL) to prevent the degradation of BTZ-043 and stored at -80 °C. Samples were thawed on ice before drying in the SpeedVac. For reconstitution 80 µL of an 80% ACN/ 20% FA, containing 20 ng/mL reserpine and d4-BTZ-043, were added. The samples were vortexed for 1 min and kept in an ultrasonic bath for 3 min. Subsequently, the samples were centrifuged (10 min, 15,000 × g). The supernatant was transferred into a glass vial and 5 µL was injected into the LC. The LC settings and MS parameters were the same as described for the tissue mimetics (Supplementary Methods). As internal standard d4-BTZ-043 was utilized, with the m/z-transitions 436.0 → 86.0 (cone voltage of 30 V, collision energy of 30 eV, dwell time of 0.2 s) as quantifier. With the expected very low concentrations of the analyte in the LCM material, the deuterated standard was applied to better mimic matrix effects and recovery for this analysis. For calibration curve preparation lung homogenate from drug-naïve mice was added to 80% ACN/20% FA (1%), containing reserpine (as QC) and d4-BTZ-043 (20 ng/mL per sample) to the final solution containing about 0.44 µg tissue/mL, which equals the average weight of the obtained material of the LCM. After centrifugation (5 min, 15,000 × g) the supernatant was spiked with BTZ-043 to yield a calibration curve ranging from 0.00015–0.025 µg/mL.

[3] = BALB/c, mouse, in vivo
[4] = system: Mtb; set-up: method as in PMID 39793592; settings: phase IIa EBA, 250 mg - 1750 mg once daily for 14 days; cited from earlier work
[5] = in vivo; settings: IL-13tg, mouse, oral, 250 mg/kg
[6] = Impact of γ-irradiation on BTZ-043 in lung cryosections of treated mice (LC-MS/MS, MALDI imaging)
[7] = LCM flakes from adjacent area (non necrotic), 4h post administration, listed as BTZ

## C[C@H]1COC2(CCN(c3nc(=O)c4cc(C(F)(F)F)cc([N+](=O)[O-])c4s3)CC2)O1 [BTZ-043]
[1]; 2 weeks of therapy
  CFU / mm3 (MBLA): 322664 CFU / mm3 and 2329437 CFU / mm3
[1]; 4-6 weeks of therapy
  CFU / mm3 (MBLA): 228171 CFU / mm3 and 91947 CFU / mm3 and 205657 CFU / mm3
[1]; IL-13tg mice, 250 mg/kg 5 times a week, 2 weeks of treatment
  Mtb 16S rRNA expression in the necrotic center compared to the vehicle group: decreased
[1]; IL-13tg mice, 250 mg/kg 5 times a week, further course of therapy (4 to 6 weeks)
  bacterial load in the necrotic center: strongly reduced
[1]; IL-13tg mice, LCM-isolated necrotic areas
  reduction of bacterial burden in necrotic areas of granulomas (Mtb 16S rRNA): 2 log10
[2]; TB granulomas laser-dissected from lung cryosections, 250 mg/kg, 4 h after administration, assumed tissue density 1 g/mL, read-out: mean BTZ-043 concentration within TB granulomas
  concentration at 4 h: 570 ng/mL
[2]; lung, laser-dissected necrotic granuloma, 250 mg/kg, LCM flakes from granulome area (granuloma), IL-13tg mouse lung cryosections, 4h post administration, read-out: ng/mg lung tissue, technical replicate 2
  concentration at 4 h: 495 ng/g
[2]; lung, laser-dissected necrotic granuloma, 250 mg/kg, LCM flakes from granulome area (granuloma), mean of 2 technical replicates, 4h post administration, read-out: ng/mg lung tissue, Mean
  concentration at 4 h: 430 ng/g
[2]; lung, whole cryosection, 250 mg/kg, whole cryosection from OT207 (QC, internal control), 4h post administration, read-out: ng/mg lung tissue, technical replicate 1
  concentration at 4 h: 779 ng/g
[2]; lung, whole cryosection, 250 mg/kg, whole cryosection from OT207 (QC, internal control), 4h post administration, read-out: ng/mg lung tissue, technical replicate 2
  concentration at 4 h: 846 ng/g
[2]; lung, whole cryosection, 250 mg/kg, whole cryosection from OT207 (QC, internal control), mean of 2 technical replicates, 4h post administration, read-out: ng/mg lung tissue, Mean
  concentration at 4 h: 810 ng/g
[2]; necrotic granulomas laser-dissected from lung cryosections, 250 mg/kg/day, IL-13tg mouse, 250 mg/kg/day 10 days, 4 h after application, read-out: mean BTZ-043 concentration in necrotic granulomas
  concentration at 4 h: 570 ng/g
[2]; non-necrotic regions laser-dissected from lung cryosections, 250 mg/kg/day, IL-13tg mouse, 250 mg/kg/day 10 days, 4 h after application, read-out: mean BTZ-043 concentration in non-necrotic regions
  concentration at 4 h: 340 ng/g
[2]; 250 mg/kg, LCM flakes from adjacent area (non necrotic), 4h post administration, read-out: ng/mg lung tissue, technical replicate 1
  concentration at 4 h: 388 ng/g
[2]; 250 mg/kg, LCM flakes from adjacent area (non necrotic), 4h post administration, read-out: ng/mg lung tissue, technical replicate 2
  concentration at 4 h: 371 ng/g
[2]; 250 mg/kg, LCM flakes from adjacent area (non necrotic), mean of 2 technical replicates, 4h post administration, read-out: ng/mg lung tissue, Mean
  concentration at 4 h: 380 ng/g
[2]; [7]
  ng/mg lung tissue, technical replicate 1: 0.303 ng/mg lung tissue and 0.478 ng/mg lung tissue
  ng/mg lung tissue, technical replicate 2: 0.299 ng/mg lung tissue and 0.205 ng/mg lung tissue
[2]; LCM flakes from adjacent area (non necrotic), mean of 2 technical replicates, 4h post administration, listed as BTZ
  ng/mg lung tissue, Mean: 0.30 ng/mg lung tissue and 0.34 ng/mg lung tissue
[2]; LCM flakes from granulome area (granuloma), mean of 2 technical replicates, 4h post administration, listed as BTZ
  ng/mg lung tissue, Mean: 0.66 ng/mg lung tissue and 0.65 ng/mg lung tissue
[3]
  AUC at which BTZ-043total exposure reaches saturation: ~30,000 h·ng/mL
  Cmax at which BTZ-043total exposure reaches saturation: around 8000 ng/mL
  Tmax: 30 to 60 min
[3]; po, 2.5 mg/kg/day
  AUCinf: 666 ng·h/mL
  Cmax: 520 ng/mL
  Tmax: 30 min
[3]; po, 5 mg/kg/day
  AUCinf: 1,360 h·ng/mL
  Cmax: 1,050 ng/mL
  Tmax: 30 min
[3]; po, 50 mg/kg/day
  AUCinf: 14,700 h·ng/mL
  Cmax: 8070 ng/mL
  Tmax: 30 min
BTZ-043 treated mice, most pronounced at the highest dose for 8 weeks
  finding at necropsy: enlarged stomachs
Dose escalation study, BALB/c
  health status of drug treated mice at high treatment doses: did not observe any indication that could point to adverse side effects
[4]
  bacterial killing with increasing dose in TB patients: no obvious further increase in bacterial killing above daily doses of 1000 mg
[5]; both, lung (cryosections)
  concentration at 0.5 h: 1120 ± 190 ng/g
  concentration at 2 h: 910 ± 150 ng/g
  concentration at 8 h: 270 ng/mL
[5]; female, lung cryosection
  concentration at 4 h: 780 ng/g
  concentration at 8 h: 260 ng/g
[5]; female, lung cryosections
  concentration at 2 h: 1090 ng/g
[5]; male, lung cryosection
  concentration at 2 h: 950 ng/g
[5]; male, lung cryosections
  concentration at 0.5 h: 1280 ng/g
  concentration at 4 h: 1380 ng/g
  concentration at 8 h: 730 ng/g
[6]; BALB/c, mouse, 250 mg/kg/day, ng/mg lung cryosection, measurement 2, no gamma irradiation, 1h after BTZ administration, naïve BALB/c 250 mg/kg/day 5 days, single cryosection
  concentration at 1 h: 1400 ng/g
[6]; gamma irradiation, 1h after BTZ administration, naïve BALB/c 250 mg/kg/day 5 days, single cryosection
  ng/mg lung cryosection, Mean: 13.81 ng/mg lung cryosection
[6]; lung tissue cryosections, 5.85 kGy
  impact of γ-irradiation on the concentration and distribution of BTZ-043: does not impact
